Here are results for 25 compounds from PMC6099728, “Investigation of Hydro-Lipophilic Properties of N-Alkoxyphenylhydroxynaphthalenecarboxamides” (Molecules : A Journal of Synthetic Chemistry and Natural …, 2018).

This data set is described as follows: Lipophilicity determination by RP-HPLC (capacity factor k / logk). It is filed as physicochemical. The following applies: for logk: isocratic MeOH 72%/H2O 28%, C18 column, 40 °C; for πA (distributive parameter π calculated from logk) / πB (distributive parameter π calculated from logk) / πC (distributive parameter π calculated from logk): π = logkS − logkU; for πA (distributive parameter π calculated from logk): unsubstituted 1a as reference; for πB (distributive parameter π calculated from logk): unsubstituted 1b as reference; for πC (distributive parameter π calculated from logk): unsubstituted 1c as reference. From the text: A HPLC separation module Waters Alliance 2695 XE equipped with a Waters Dual Absorbance Detector 2486 (Waters Corp., Milford, MA, USA) was used. A chromatographic column Symmetry® C18 5 µm, 4.6 × 250 mm, Part No. W21751W016 (Waters Corp.) was used. The HPLC separation process was monitored by Empower® 3 Chromatography Manager Software (Waters Corp.). Isocratic elution by a mixture of MeOH p.a. (72%) and H2O-HPLC Mili-Q grade (28%) as a mobile phase was used. The total flow of the column was 1.0 mL/min, the injection was 20 μL, the column temperature was 40 °C, and the sample temperature was 10 °C. A detection wavelength of 210 nm was chosen. The KI methanolic solution was used for the determination of dead time (tD). Retention times (tR) were measured in minutes. Capacity factors k were calculated using the Empower® 3 Chromatography Manager Software according to the formula k = (tR − tD)/tD, where tR is the retention time of the solute, while tD is the dead time obtained using an unretained analyte. Each experiment was repeated three times. Logk, which was calculated from the capacity factor k, is used as the lipophilicity index converted to the logP scale.

For `O=C(Nc1ccccc1)c1cc2ccccc2cc1O` [1a], under “series A”, the logk was determined as 0.3927 and the “πA (distributive parameter π calculated from logk)” value is 0.

Regarding `O=C(Nc1ccccc1)c1ccc2ccccc2c1O` [1b], under “series B”, the logk came to 0.6755 and the “πB (distributive parameter π calculated from logk)” value is listed as 0.

For the compound `O=C(Nc1ccccc1)c1c(O)ccc2ccccc12` [1c], where the note is “series C”, the logk is reported as −0.0581 and the “πC (distributive parameter π calculated from logk)” value is listed as 0.

As to `COc1ccccc1NC(=O)c1cc2ccccc2cc1O` [2a], for the setting “series A”, the logk was 0.3982 and the “πA (distributive parameter π calculated from logk)” value is 0.09.

`COc1ccccc1NC(=O)c1ccc2ccccc2c1O` [2b]: where the note is “series B”, the logk was determined as 0.8593 and the “πB (distributive parameter π calculated from logk)” value is reported as 0.09.

Turning to `COc1ccccc1NC(=O)c1c(O)ccc2ccccc12` [2c], for the setting “series C”, the logk was found to be 0.2518 and the “πC (distributive parameter π calculated from logk)” value is given as 0.05.

Turning to `COc1cccc(NC(=O)c2cc3ccccc3cc2O)c1` [3a], where the note is “series A”, the logk is recorded as 0.4055 and the “πA (distributive parameter π calculated from logk)” value is recorded as 0.04.

On to `COc1cccc(NC(=O)c2ccc3ccccc3c2O)c1` [3b], for which, under “series B”, the logk is 0.6828 and the “πB (distributive parameter π calculated from logk)” value was 0.04.

As for `COc1cccc(NC(=O)c2c(O)ccc3ccccc23)c1` [3c], under “series C”, the logk worked out at 0.1106 and the “πC (distributive parameter π calculated from logk)” value was 0.02.

As for `COc1ccc(NC(=O)c2cc3ccccc3cc2O)cc1` [4a], under “series A”, the logk was determined as 0.3374 and the “πA (distributive parameter π calculated from logk)” value is −0.15.

For the compound `COc1ccc(NC(=O)c2ccc3ccccc3c2O)cc1` [4b], where the note is “series B”, the logk is reported as 0.6239 and the “πB (distributive parameter π calculated from logk)” value is listed as −0.15.

`COc1ccc(NC(=O)c2c(O)ccc3ccccc23)cc1` [4c]: where the note is “series C”, the logk was −0.1149 and the “πC (distributive parameter π calculated from logk)” value is on record as −0.19.

Consider `CCOc1ccccc1NC(=O)c1cc2ccccc2cc1O` [5a], for which, where the note is “series A”, the logk was determined as 0.5570 and the “πA (distributive parameter π calculated from logk)” value is 0.40.

As to `CCOc1ccccc1NC(=O)c1ccc2ccccc2c1O` [5b], under “series B”, the logk was 1.0940 and the “πB (distributive parameter π calculated from logk)” value is 0.40.

As for `CCOc1ccccc1NC(=O)c1c(O)ccc2ccccc12` [5c], for the setting “series C”, the logk is 0.4759 and the “πC (distributive parameter π calculated from logk)” value was 0.39.

On to `CCOc1cccc(NC(=O)c2cc3ccccc3cc2O)c1` [6a], for which, for the setting “series A”, the logk came to 0.5682 and the “πA (distributive parameter π calculated from logk)” value is reported as 0.36.

For the compound `CCOc1cccc(NC(=O)c2ccc3ccccc3c2O)c1` [6b], where the note is “series B”, the logk is listed as 0.8353 and the “πB (distributive parameter π calculated from logk)” value is recorded as 0.36.

Regarding `CCOc1cccc(NC(=O)c2c(O)ccc3ccccc23)c1` [6c], where the note is “series C”, the logk was found to be 0.1175 and the “πC (distributive parameter π calculated from logk)” value was 0.34.

Take `CCOc1ccc(NC(=O)c2cc3ccccc3cc2O)cc1` [7a]: where the note is “series A”, the logk is given as 0.4916 and the “πA (distributive parameter π calculated from logk)” value is 0.15.

Turning to `CCOc1ccc(NC(=O)c2ccc3ccccc3c2O)cc1` [7b], for the setting “series B”, the logk turned out to be 0.7700 and the “πB (distributive parameter π calculated from logk)” value is 0.15.

For the compound `CCOc1ccc(NC(=O)c2c(O)ccc3ccccc23)cc1` [7c], for the setting “series C”, the logk is reported as 0.0542 and the “πC (distributive parameter π calculated from logk)” value is given as 0.27.

For the compound `CCCOc1ccccc1NC(=O)c1cc2ccccc2cc1O` [8a], under “series A”, the logk came to 0.7221 and the “πA (distributive parameter π calculated from logk)” value was 0.74.

For the compound `CCCOc1ccccc1NC(=O)c1ccc2ccccc2c1O` [8b], under “series B”, the logk was 1.3103 and the “πB (distributive parameter π calculated from logk)” value is listed as 0.74.

As for `CCCOc1ccccc1NC(=O)c1c(O)ccc2ccccc12` [8c], for the setting “series C”, the logk is listed as 0.6639 and the “πC (distributive parameter π calculated from logk)” value is on record as 0.73.

In the case of `CCCOc1cccc(NC(=O)c2cc3ccccc3cc2O)c1` [9a], under “series A”, the logk was determined as 0.7672 and the “πA (distributive parameter π calculated from logk)” value was 0.69.
